Experimental data as given in US20240191198A1, “CELL-CULTURED FOOD PRODUCTS AND RELATED CELLS, COMPOSITIONS, METHODS AND SYSTEMS” (BlueNalu, Inc., priority 2021, published 2024).
Entries after “also recorded” stand apart in the source; their conditions may differ.

What was measured:
dog kidney cells = assay: Effect of nervonic acid on fatty acid toxicity (IncuCyte, CellTiter-Glo ATP assay); type: cell-based, Canis familiaris
Protocol: (§1) Concentration effects of fatty acids previously shown to be toxic to aquatic fat-derived and muscle-derived cells (Example 2, Example 5, and Example 6, respectively) were evaluated, alone and in combination with nervonic acid. EPA, DHA, stearic acid, palmitic acid and nervonic acid were tested at concentrations of 0, 10, 25, and 50 ug/mL; each concentration of EPA, DHA, stearic acid and palmitic acid was also tested in combination with 10, 25 and 50 μg/ml of nervonic acid.
(§2) Cell lines were seeded per standard passaging protocols in 4×96 well plates. The cells were allowed to proliferate to approximately 80% confluence, and then transitioned to lipid loading medium containing 0/4% FBS and appropriate lipid compositions, with 6 wells/condition. Cells were monitored for 24-48 hours to evaluate any protective effect with the addition of nervonic acid.
(§3) Cells from terrestrial cell lines were imaged in the IncuCyte for a 1-time scan to collect the images and quantify confluence using the IncuCyte software. Following imaging, cell viability was determined by a commercially available ATP assay (CellTiter-Glo 2.0, Promega) where luminescent signal is proportionate to cell number.

Yellowtail myoblasts [1] = assay: Loading of single fatty acids into yellowtail myoblasts; type: cell-based, Seriola lalandi; details: for lipid accumulation (BODIPY): individual BSA-conjugated fatty acid 25, 50, 75 or 100 μg/ml, 4% serum
Protocol: Cells were seeded onto tissue culture polystyrene at a density of 6000 cells per cm^2. Cells were cultured in the presence of control media without fatty acids or test media with individual fatty acids conjugated to BSA at 25, 50, 75, or 100 μg/ml in the presence of 4% serum. Individual fatty acids tested included saturated fatty acids, monounsaturated fatty acids, and unsaturated fatty acids as shown in Table 7 with varying carbon chain length and location of double bonds along the carbon chain. Cell morphology was observed over a six-day period by brightfield microscopy for characteristic rounding and lipid loading.

rabbit skin fibroblasts = assay: Effect of nervonic acid on fatty acid toxicity (IncuCyte, CellTiter-Glo ATP assay); type: cell-based, Oryctolagus cuniculus
Protocol: as §1, §2, §3

Bluefin tuna myoblasts = assay: as above; type: cell-based, Thunnus orientalis
Protocol: as §1, §2
Cells from aquatic species were placed in the IncuCyte and scanned every 6 hours up to 48 hours. Once imaging was completed, cellviability was determined by a commercially available ATP assay (CellTiter-Glo 2.0, Promega) where luminescent signal is proportionate to cell number.

[2] = tested on: silver carp preadipocytes; assay: Loading of single fatty acids into carp preadipocytes; type: cell-based, Hypophthalmichthys molitrix; details: six days; for lipid loading (brightfield, BODIPY lipid droplets): individual fatty acid 25, 50, 75 or 100 μg/ml; for toxicity (cell confluency, cell number): individual fatty acid up to 100 μg/ml
Protocol: Preadipocytes derived from freshwater carp as described in Example 1 were evaluated for the ability to uptake individual fatty acids. Cells were seeded onto tissue culture polystyrene at a density of 5-7000 cells per cm^2. Cells were cultured in the presence of control media without fatty acids or test media with individual fatty acids at 25, 50, 75, or 100 μg/ml in the absence of serum. Individual fatty acids tested included saturated fatty acids ([…]) and unsaturated fatty acids (linoleic acid). Cell morphology was observed over a six-day period by brightfield microscopy for characteristic rounding and lipid loading. As in Example 1, immunofluorescent staining of cells was performed for cell nuclei by DAPI, cell cytoskeleton by Phalloidin, and lipid droplets by BODIPY.

[3] = tested on: Myoblasts or fibroblasts of chicken, duck, goose, or turkey; assay: Loading of fatty acid mixtures and single fatty acids into cells from avian species; type: cell-based
Protocol: Myoblasts or fibroblasts of chicken, duck, goose, or turkey are isolated from muscle tissue by enzymatic and mechanical/or manual dissociation. Cells are expanded in 2D tissue culture or cell suspension culture.
(§4) Cells are cultured in the presence of control media without fatty acids or test media with individual fatty acids at 1, 5, 10, 15, 25, 50, 75, or 100 μg/ml in the absence or presence of reduced serum. Fatty acids are conjugated to BSA or unconjugated. Individual fatty acids include saturated fatty acids, monounsaturated fatty acids, and poly-unsaturated fatty acids with varying carbon chain lengths and location of double bonds along the carbon chains.

Yellowtail myoblasts [4] = assay: Loading of chemically defined fatty acid combinations (Taguchi L-27) into yellowtail myoblasts: cell number, BODIPY, Mitotracker; type: cell-based, Seriola lalandi; details: fatty acids each at 0, 10, 25 or 50 μg/ml, 4% serum
Protocol: Myoblasts derived from yellowtail as described in Example 4 were evaluated for the ability to uptake fatty acids from a defined chemical composition. Cells were seeded onto tissue culture polystyrene at a density of 6000 cells per cm^2. Cells were cultured in the presence of control media without fatty acids or test media with fatty acids conjugated to BSA in the presence of 4% serum for two or six days. Concentrations were used for each individual fatty acid at 0, 10, 25, or 50 μg/ml. Combinations of fatty acids were determined using a design of experiments using a Taguchi L-27 design (Table 8). […] Cells were fixed, stained and imaged at day two or day six. Cells were treated with NucBlue, BODIPY and Mitotracker for 1.5 hours and live imaging was performed. Cells were then fixed in 4% PFA for 15 minutes and then blocked overnight at 4 degrees Celsius in blocking buffer that contained 5% goat serum, 1% BSA, and 0.2% fish gelatin in PBS. Cells were incubated with Phalloidin for 1 hour at room temperature in blocking buffer (Phalloidin 1:800). Plates were washed twice with PBS prior to imaging. JMP statistical software was used to quantify the effect of each fatty acid on cell number, fatty acid accumulation, and cell health.

[5] = tested on: Myoblasts or fibroblasts of cow, pork, goat, lamb, or deer; assay: Loading of fatty acid mixtures and single fatty acids into mammalian cells; type: cell-based
Protocol: Myoblasts or fibroblasts of cow, pork, goat, lamb, or deer are isolated from muscle tissue by enzymatic and mechanical/or manual dissociation. Cells are expanded in 2D tissue culture or 3D cell suspension culture.
as §4

[6] = toxic concentration of 50 μg/mL DHA
[7] = 1-100 μg/ml, absence or presence of reduced serum
[8] = added to the growth medium as the only fatty acid

CC/C=C\C/C=C\C/C=C\C/C=C\C/C=C\C/C=C\CCC(=O)O [DHA, docosahexaenoic acid]
toxic concentration (dog kidney cells; 24-48 hours): 50 µg/mL
concentration above which toxicity occurs (Yellowtail myoblasts [1]; altered cell morphology and decreased cell number): above 25 μg/ml
toxicity (cell morphology, cell number) (Yellowtail myoblasts [1]; individual fatty acid, six days): some toxicity effects at highest concentrations tested
toxic concentration (rabbit skin fibroblasts; 24-48 hours): 50 µg/mL
toxic concentration (Bluefin tuna myoblasts; 24-48 hours): 50 µg/mL

CCCCCCCCCCCC(=O)O [lauric acid]
lipid accumulation (BODIPY) (Yellowtail myoblasts [1]; six days): significant accumulation at all concentrations tested; also recorded: Highest lipid loading

CCCCC/C=C\C/C=C\CCCCCCCC(=O)O [linoleic acid]
lipid accumulation (BODIPY) (Yellowtail myoblasts [1]; six days): limited total loading capacity
lipid loading (brightfield, BODIPY lipid droplets) [2]: concentration-dependent lipid accumulation; also recorded: increased loading with concentration

CC/C=C\C/C=C\C/C=C\CCCCCCCC(=O)O [linolenic acid, α-linolenic acid]
lipid accumulation (BODIPY) (Yellowtail myoblasts [1]; six days): lipid accumulation that was concentration-driven; also recorded: Loading at all concentrations was observed

CCCCCCCCCCCCCC(=O)O [myristic acid]
lipid accumulation (BODIPY) (Yellowtail myoblasts [1]; six days): limited accumulation with only small areas of uptake even at the highest concentration of 100 μg/ml

CCCCCCCC/C=C\CCCCCCCCCCCCCC(=O)O [nervonic acid, (Z)-Tetracos-15-enoic acid]
increase in cell number (cell ATP) in the presence of nervonic acid (dog kidney cells; [6]): 5.5 ×
lipid accumulation (BODIPY) (Yellowtail myoblasts [1]; six days): no lipid accumulation at any concentration tested; also recorded: does not load when used individually; also recorded: No lipid loading was observed
increase in cell number (cell ATP) in the presence of nervonic acid (rabbit skin fibroblasts; [6]): 42 ×
lipid uptake and lipid accumulation [3, 7]: causes increased lipid uptake and lipid accumulation
cell proliferation [3, 8]: increases cell proliferation
cell number and health (Mitotracker), viability (Yellowtail myoblasts [4]): key factor in increasing lipid accumulation and cell number
lipid content / lipid accumulation (BODIPY fluorescence) (Yellowtail myoblasts [4]; two or six days): key factor in increasing lipid accumulation and cell number
lipid uptake and lipid accumulation [5, 7]: causes increased lipid uptake and lipid accumulation
cell proliferation [5, 8]: increases cell proliferation
increase in cell number (cell ATP) in the presence of nervonic acid (Bluefin tuna myoblasts; [6]): 70 ×

CCCCCCCC/C=C\CCCCCCCC(=O)O [oleic acid]
lipid accumulation (BODIPY) (Yellowtail myoblasts [1]; six days): Loading at all concentrations was observed

CCCCCCCCCCCCCCCC(=O)O [palmitic acid]
lipid accumulation (BODIPY) (Yellowtail myoblasts [1]; six days): limited accumulation with only small areas of uptake even at the highest concentration of 100 μg/ml

CCCCCC/C=C\CCCCCCCC(=O)O [palmitoleic acid]
lipid accumulation (BODIPY) (Yellowtail myoblasts [1]; six days): Loading at all concentrations was observed
lipid loading (brightfield, BODIPY lipid droplets) [2]: concentration-dependent lipid accumulation; also recorded: a peak for palmitoleic acid is reached at a lower concentration
lipid loading (brightfield, BODIPY lipid droplets) ([2]; listed as Palmitoleic acid): effective loading at 50 μg/ml
toxicity (cell confluency, cell number) [2]: reduced cell confluency indicating potential toxicity
toxicity (cell confluency, cell number) ([2]; listed as Palmitoleic acid): reduced cell number; also recorded: Some concentration-related toxicity
concentration above which toxicity occurs [2]: above 50 μg/ml

CCCCCCCCCCCCCCCCCC(=O)O [stearic acid]
lipid accumulation (BODIPY) (Yellowtail myoblasts [1]; six days): limited accumulation with only small areas of uptake even at the highest concentration of 100 μg/ml

CCCCCC/C=C\CCCCCCCCCC(=O)O [vaccenic acid, (11Z)-11-octadecenoic acid]
lipid accumulation (BODIPY) (Yellowtail myoblasts [1]; six days): Loading at all concentrations was observed
lipid accumulation (BODIPY) (Yellowtail myoblasts [1]; six days, listed as Cis-vaccenic acid): taken up very readily
